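Five compound concentrations were applied to cells in 96-well plates for 48 hours; endpoints were derived by simple linear interpolation of the resulting dose-response curve. GI50 marks 50% less growth. TGI marks complete inhibition of growth.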
Key:
Assay in all cases: DTP human tumour cell line panel, 48 h
[1] = system: COLO 205 colon
[2] = system: SK-MEL-28 melanoma
[3] = system: HL-60(TB) leukemia
[4] = system: NCI-H460 lung
[5] = system: SNB-75 CNS
[6] = system: UACC-62 melanoma
[7] = system: HOP-62 NSCLC
[8] = system: MDA-MB-231 breast
[9] = system: UO-31 renal
[10] = system: HCC-2998 colon

COC(=O)[C@]12CC[C@@H](C)[C@H](C)[C@@H]1C1=CC[C@@H]3[C@@]4(C)C(C=O)=C[C@@](C)(COC(=O)/C=C/c5ccccc5)[C@@H]4[C@H](O)C[C@@]3(C)[C@]1(C)CC2
GI50 [1]: 2.3 µM | TGI [1]: 5.33 µM | GI50 [2]: 2.7 µM | TGI [2]: 7.63 µM | GI50 [3]: 2.48 µM | TGI [3]: 5.97 µM | GI50 [4]: 2.96 µM | TGI [4]: 10.2 µM | GI50 [5]: 3.37 µM | TGI [5]: 31.5 µM | GI50 [6]: 2.49 µM | TGI [6]: 8.48 µM | GI50 [7]: 9.4 µM | TGI [7]: 32.1 µM | GI50 [8]: 4.36 µM | TGI [8]: 27.2 µM | GI50 [9]: 3.28 µM | TGI [9]: 20.2 µM | GI50 [10]: 3.04 µM | TGI [10]: 7.75 µM

CCC[CH2][Pb]([Cl])([CH2]CCC)[CH2]CCC
GI50 [1]: 0.0194 µM | TGI [1]: 0.0358 µM | GI50 [2]: 0.0276 µM | TGI [2]: 0.0792 µM | GI50 [3]: 0.0232 µM | TGI [3]: 0.0444 µM | GI50 [4]: 0.0177 µM | TGI [4]: 0.0417 µM | GI50 [5]: 0.0215 µM | TGI [5]: 0.114 µM | GI50 [6]: 0.0459 µM | TGI [6]: 0.112 µM | GI50 [7]: 0.128 µM | TGI [7]: 0.258 µM | GI50 [8]: 0.0328 µM | TGI [8]: 0.122 µM | GI50 [9]: 0.031 µM | TGI [9]: 0.0809 µM | GI50 [10]: 0.0439 µM | TGI [10]: 0.136 µM

Nc1c(F)cc(-c2nc3cc(F)ccc3[se]2)cc1Br
GI50 [1]: 0.0536 µM | TGI [1]: > 100 µM | GI50 [2]: > 100 µM | TGI [2]: > 100 µM | GI50 [3]: > 100 µM | TGI [3]: > 100 µM | GI50 [4]: 0.0189 µM | TGI [4]: > 35.2 µM | GI50 [5]: 3.23 µM | TGI [5]: > 63 µM | GI50 [6]: 1.06 µM | TGI [6]: > 100 µM | GI50 [7]: 1.83 µM | TGI [7]: > 100 µM | GI50 [8]: 0.306 µM | TGI [8]: 7.79 µM | GI50 [9]: 1.43 µM | TGI [9]: > 79 µM | GI50 [10]: 0.0477 µM | TGI [10]: 0.35 µM

CN(C)CCNC(=O)NC[C@H]1CC[C@@H]2[C@H](O1)c1cc(C(F)(F)F)ccc1N[C@H]2c1ccccc1
GI50 [1]: 0.0476 µM | TGI [1]: 0.236 µM | GI50 [2]: 1.63 µM | TGI [2]: 21.5 µM | GI50 [3]: 0.154 µM | TGI [3]: 0.672 µM | GI50 [4]: 0.14 µM | TGI [4]: 11.8 µM | GI50 [5]: 0.32 µM | TGI [5]: 23.4 µM | GI50 [6]: 0.276 µM | TGI [6]: 15.9 µM | GI50 [7]: 1.71 µM | TGI [7]: 24.1 µM | GI50 [8]: 0.24 µM | TGI [8]: 3.6 µM | GI50 [9]: 6.12 µM | TGI [9]: 34.6 µM | GI50 [10]: 0.275 µM | TGI [10]: 18.6 µM

COc1ccc(OC)c(/C=C/c2nc(SCc3ccccc3)n(-c3ccc(Cl)cc3)n2)c1
GI50 [1]: 14.6 µM | TGI [1]: > 100 µM | GI50 [2]: 28.5 µM | TGI [2]: > 100 µM | GI50 [3]: 3.14 µM | TGI [3]: 9.86 µM | GI50 [4]: 4.17 µM | TGI [4]: > 100 µM | GI50 [5]: 3.92 µM | TGI [5]: > 100 µM | GI50 [6]: 6.15 µM | TGI [6]: > 100 µM | GI50 [7]: 9.57 µM | TGI [7]: > 100 µM | GI50 [8]: 30.9 µM | TGI [8]: > 100 µM | GI50 [10]: 8.24 µM | TGI [10]: > 100 µM

COc1ccc2c(c1OC(C)=O)C1=CC(=O)CCC13CCNC3C2 (stereo unspecified)
TGI [1]: > 100 µM | TGI [2]: > 100 µM | TGI [3]: > 100 µM | TGI [4]: > 100 µM | TGI [5]: > 100 µM | TGI [6]: > 100 µM | TGI [7]: > 100 µM | TGI [8]: > 100 µM | TGI [9]: > 100 µM | TGI [10]: > 100 µM

COc1ccc2c(c1)C(=O)c1c-2c(Nc2cccc(C(C)=O)c2)nc2ccccc12
GI50 [1]: 37.9 µM | TGI [1]: > 100 µM | GI50 [2]: 15.1 µM | TGI [2]: 64.6 µM | GI50 [3]: > 100 µM | TGI [3]: > 100 µM | GI50 [4]: 23.5 µM | TGI [4]: > 100 µM | GI50 [5]: 5.55 µM | TGI [5]: 20.5 µM | GI50 [6]: 11.6 µM | TGI [6]: 27.7 µM | GI50 [7]: 0.727 µM | TGI [7]: 2.49 µM | GI50 [8]: 3.21 µM | TGI [8]: 12.7 µM | GI50 [9]: 15.4 µM | TGI [9]: 45.2 µM | GI50 [10]: 16.1 µM | TGI [10]: 91.4 µM

C#Cc1cccc(NC(=O)c2ccc(NC(=O)CCl)cc2)c1
GI50 [1]: 23.7 µM | TGI [1]: > 82.5 µM | GI50 [2]: > 82.5 µM | TGI [2]: > 82.5 µM | GI50 [3]: 15.7 µM | TGI [3]: 45 µM | GI50 [4]: 29.2 µM | TGI [4]: > 82.5 µM | GI50 [5]: 17.2 µM | TGI [5]: > 82.5 µM | GI50 [6]: 36.9 µM | TGI [6]: > 82.5 µM | GI50 [7]: 68.3 µM | TGI [7]: > 82.5 µM | GI50 [8]: 24 µM | TGI [8]: > 82.5 µM | GI50 [9]: 9.48 µM | TGI [9]: 20.3 µM | GI50 [10]: > 82.5 µM | TGI [10]: > 82.5 µM

Cc1ccc(S(=O)(=O)Nc2ccc(-c3cc(-c4cccc(F)c4)c(C#N)c(N)n3)cc2)cc1
GI50 [1]: 2.18 µM | TGI [1]: 4.48 µM | GI50 [2]: 1.96 µM | TGI [2]: 4.08 µM | GI50 [3]: 1.87 µM | TGI [3]: 6.07 µM | GI50 [4]: 3.53 µM | TGI [4]: 12.6 µM | GI50 [6]: 1.52 µM | TGI [6]: 3.44 µM | GI50 [7]: 4.25 µM | TGI [7]: 17.2 µM | GI50 [8]: 1.95 µM | TGI [8]: 4.6 µM | GI50 [9]: 1.32 µM | TGI [9]: 2.59 µM | GI50 [10]: 1.72 µM | TGI [10]: 3.28 µM

Cc1ccc(S(=O)(=O)N2CCc3ccc(O)c4c3C2Cc2ccc3c(c2-4)OCO3)cc1 (stereo unspecified)
GI50 [1]: 5.08 µM | TGI [1]: 18.7 µM | GI50 [2]: 0.668 µM | TGI [2]: 18.6 µM | GI50 [3]: 0.398 µM | TGI [3]: 5.56 µM | GI50 [4]: 0.539 µM | TGI [4]: 7.53 µM | GI50 [5]: 0.288 µM | TGI [5]: 9.59 µM | GI50 [6]: 0.577 µM | TGI [6]: 9.41 µM | GI50 [7]: 1.89 µM | TGI [7]: 27.9 µM | GI50 [8]: 1.47 µM | TGI [8]: 9.48 µM | GI50 [9]: 0.904 µM | TGI [9]: 11.8 µM | GI50 [10]: 1.56 µM | TGI [10]: 5.24 µM

[CH3][Sn]([CH3])([CH3])[O][N+](=O)[O-]
GI50 [1]: > 10 µM | TGI [1]: > 10 µM | GI50 [2]: > 10 µM | TGI [2]: > 10 µM | GI50 [3]: 4.03 µM | TGI [3]: > 10 µM | GI50 [4]: 8.25 µM | TGI [4]: > 10 µM | GI50 [5]: > 10 µM | TGI [5]: > 10 µM | GI50 [6]: 3.91 µM | TGI [6]: > 10 µM | GI50 [7]: 6.41 µM | TGI [7]: > 10 µM | GI50 [8]: 3.67 µM | TGI [8]: 7.35 µM | GI50 [9]: > 10 µM | TGI [9]: > 10 µM | GI50 [10]: > 10 µM | TGI [10]: > 10 µM

CC1=C([Se]CC(OC(=O)[C@@H](CO)NC(=O)OC(C)(C)C)C(=O)NCCCCCC(=O)OCc2ccccc2)C(=O)c2ccccc2C1=O (stereo partly specified)
GI50 [1]: 1.82 µM | TGI [1]: 3.35 µM | GI50 [2]: 1.79 µM | TGI [2]: 3.21 µM | GI50 [3]: 2.03 µM | TGI [3]: 4.82 µM | GI50 [4]: 0.462 µM | TGI [4]: 1.61 µM | GI50 [5]: 1.29 µM | TGI [5]: 2.55 µM | GI50 [6]: 1.68 µM | TGI [6]: 3.07 µM | GI50 [7]: 0.414 µM | TGI [7]: 1.75 µM | GI50 [8]: 1.68 µM | TGI [8]: 3.19 µM | GI50 [9]: 1.54 µM | TGI [9]: 3.03 µM | GI50 [10]: 1.98 µM | TGI [10]: 3.48 µM

Reference: PubChem BioAssay (NCI)
